# In ChEMBL document CHEMBL3044543, “Synthetic sialic-acid-containing polyvalent antiviral inhibitors” (Med Chem Res, 2009):
# Experiments:
# [1] = target: Hemagglutinin (Influenza A virus, UniProt K7N5L2); assay: Binding affinity to Influenza virus A Hemagglutinin
# [2] = target: Hemagglutinin (Influenza A virus) (UniProt K7N5L2); assay: Inhibition of Influenza virus A/H3N2/NIB/44/90M Hemagglutinin after 2 hr by horseradish peroxidase assay relative to Neu5Aalpha
Structure (SMILES),IC50 [1],Ratio [2]
CC(=O)N[C@H]1[C@H]([C@H](O)[C@H](O)CO)OC(OCCCCCCC(=O)NCc2cccc3ccccc23)(C(=O)O)C[C@@H]1OC(=O)CNS(=O)(=O)c1cccc2c(N(C)C)cccc12 (some centres not stated),3 mM,–
CC(=O)N[C@H]1[C@H]([C@H](O)[C@H](O)CO)OC(OCc2ccc(NC(=O)CNC(=O)CCCCC(=O)NCC(=O)NCC(=O)NCC(=O)NCC(=O)NCC(=O)NCC(=O)NCC(=O)NCC(CNC(=O)CNC(=O)CNC(=O)CNC(=O)CNC(=O)CNC(=O)CNC(=O)CNC(=O)CCCCC(=O)NCC(=O)Nc3ccc(COC4(C(=O)O)C[C@H](O)[C@@H](NC(C)=O)[C@H]([C@H](O)[C@H](O)CO)O4)cc3)(CNC(=O)CNC(=O)CNC(=O)CNC(=O)CNC(=O)CNC(=O)CNC(=O)CNC(=O)CCCCC(=O)NCC(=O)Nc3ccc(COC4(C(=O)O)C[C@H](O)[C@@H](NC(C)=O)[C@H]([C@H](O)[C@H](O)CO)O4)cc3)CNC(=O)CNC(=O)CNC(=O)CNC(=O)CNC(=O)CNC(=O)CNC(=O)CNC(=O)CCCCC(=O)NCC(=O)Nc3ccc(COC4(C(=O)O)C[C@H](O)[C@@H](NC(C)=O)[C@H]([C@H](O)[C@H](O)CO)O4)cc3)cc2)(C(=O)O)C[C@@H]1O (some centres not stated),–,1000
